From the Kinase Knowledgebase extract (Sharma et al. 2016)

Biological target: EGFR (mouse) (UniProt P00533)
Conditions: baf3

IC50 | Structure (SMILES)
12 nM | O=C(O)c1cc(N(Cc2ccccc2O)Cc2cc(O)ccc2O)ccc1O
20 nM | COc1cc2ncnc(Nc3ccc(F)c(Cl)c3)c2cc1OCCN1CCOCC1
12 nM | O=C(O)c1ccc(-c2cc3c(Nc4cccc(Cl)c4)ncnc3[nH]2)cc1

Biological target: EGFR (human) (UniProt P00533)
Conditions: mcf-10a

EGFR (human), sequence (P00533 whole entry, looked up): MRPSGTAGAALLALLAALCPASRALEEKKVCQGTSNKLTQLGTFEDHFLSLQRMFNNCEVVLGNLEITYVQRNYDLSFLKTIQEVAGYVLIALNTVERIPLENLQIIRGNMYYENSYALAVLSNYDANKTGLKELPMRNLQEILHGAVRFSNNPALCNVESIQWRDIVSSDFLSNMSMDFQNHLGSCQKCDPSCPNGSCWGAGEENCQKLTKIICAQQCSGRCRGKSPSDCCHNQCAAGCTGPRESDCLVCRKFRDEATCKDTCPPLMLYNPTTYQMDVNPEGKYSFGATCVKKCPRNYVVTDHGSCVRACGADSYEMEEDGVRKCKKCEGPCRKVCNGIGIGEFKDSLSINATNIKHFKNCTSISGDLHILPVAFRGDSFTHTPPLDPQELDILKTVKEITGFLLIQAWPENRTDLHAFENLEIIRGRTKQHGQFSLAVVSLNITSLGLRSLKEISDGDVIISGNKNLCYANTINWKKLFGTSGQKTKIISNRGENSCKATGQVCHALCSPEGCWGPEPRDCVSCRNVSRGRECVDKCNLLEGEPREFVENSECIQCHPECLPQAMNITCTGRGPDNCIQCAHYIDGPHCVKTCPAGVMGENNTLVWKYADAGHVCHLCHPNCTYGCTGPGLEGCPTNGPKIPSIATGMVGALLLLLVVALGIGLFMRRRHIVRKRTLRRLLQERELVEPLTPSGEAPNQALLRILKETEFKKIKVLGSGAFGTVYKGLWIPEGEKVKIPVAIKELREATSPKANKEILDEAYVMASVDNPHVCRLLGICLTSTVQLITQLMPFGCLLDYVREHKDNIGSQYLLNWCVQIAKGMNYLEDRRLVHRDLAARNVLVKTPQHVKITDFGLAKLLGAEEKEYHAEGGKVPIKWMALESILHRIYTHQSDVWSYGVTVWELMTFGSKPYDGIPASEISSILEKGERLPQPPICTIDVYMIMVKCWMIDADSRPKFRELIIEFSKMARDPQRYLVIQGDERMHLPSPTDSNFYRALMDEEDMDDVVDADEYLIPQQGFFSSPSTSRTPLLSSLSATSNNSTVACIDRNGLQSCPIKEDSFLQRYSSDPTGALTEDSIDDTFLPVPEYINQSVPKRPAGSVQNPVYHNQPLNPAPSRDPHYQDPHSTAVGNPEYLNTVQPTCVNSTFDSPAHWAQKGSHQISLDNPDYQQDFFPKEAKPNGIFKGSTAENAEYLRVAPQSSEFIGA

IC50 | Structure (SMILES)
585 nM | COc1cc2ncnc(Nc3cccc(I)c3)c2cc1OC
108 nM | CCOc1cc2ncnc(Nc3cccc(Cl)c3)c2cc1OCC
188 nM | CCOc1cc2ncnc(NCc3ccc(F)cc3)c2cc1OCC
78 nM | CCOc1cc2ncnc(Nc3cccc(Br)c3)c2cc1OCC
612 nM | COc1cc2ncnc(Nc3ccc(F)cc3)c2cc1OC
99 nM | CCOc1cc2ncnc(Nc3cccc(F)c3)c2cc1OCC
179 nM | COc1cc2ncnc(Nc3ccccc3F)c2cc1OC
> 3000 nM | CCOc1cc2ncnc(Nc3cc(F)cc(C(F)(F)F)c3)c2cc1OCC
1630 nM | COc1cc2ncnc(Nc3cc(F)cc(C(F)(F)F)c3)c2cc1OC
141 nM | CCOc1cc2ncnc(Nc3ccccc3F)c2cc1OCC
153 nM | CCOc1cc2ncnc(Nc3cccc(I)c3)c2cc1OCC
622 nM | CCOc1cc2ncnc(Nc3ccc(F)cc3)c2cc1OCC
